How the values were obtained:
[1] = target: T1, KRAS G12C 1-169, his-tagged protein, GDP-loaded (Homo sapiens, UniProt P01116, G12C); test: KRAS G12C covalent binding (% modification) by mass spectrometry, ten or three minute incubation
T1 construct: KRAS G12C 1-169, his-tagged protein, GDP-loaded
How it was run: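 GDP-loaded protein in 20 mM Hepes, 150 mM NaCl, 1 mM MgCl2 was incubated with compound (final 100, 30 or 10 μM; 2% DMSO) at room temperature, then quenched with formic acid. Intact-protein LC-MS with charge-envelope deconvolution gave masses and intensities of modified and unmodified species.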

[2] = Whole blood stability, dog; assay type: in vitro ADME; conditions: 37° C.; for half-life at 5 µM: read-out: Whole Blood Stability (T1/2) (converted)
Method: (§1) Representative compounds of the invention were tested for their whole blood stability as follows:
(§2) Test compounds were prepared as a 500 μM stock solution in DMSO (Adding 10 μl of 10 mM DMSO stock solution to 190 μl of 100% DMSO). Whole blood was thawed on ice. A whole blood plate was prepared by adding 460 μl of the whole blood (different species as needed) to a 96-well in ml deep well plate. The whole blood plate was preincubated at 37° C. for 10 min. 4 μl of compound solution and 396 μl of whole blood was added to the plate and mixed thoroughly. Each sample was aliquoted (30 μl) to the incubation plate (cluster tubes) and quenched at time zero with ice-cold 100% ACN, and the incubation plates were added to the 37° C. incubator (200 μl).
(§3) The time zero sample was maintained at 4° C. until centrifuged. All other samples were quench at different time points (1, 2, 4 hr), vortexed for 30 seconds and centrifuged at 3500 rpm for 15 min at 4° C. 30 μl of supernatant was added to 170 μl 0.1% FA aqueous solution and the sample was analyzes by LC/MS/MS.

[3] = Whole blood stability, monkey; assay type: in vitro ADME; conditions: 37° C.; for half-life at 5 µM: read-out: Whole Blood Stability (T1/2) (converted)
Method: as §1, §2, §3

[4] = covalent binding to KRAS G12C after a ten minute incubation period
[5] = covalent binding to KRAS G12C, % modification after a three minute incubation period

Row | Compound | half-life at 5 µM [2] [h] | half-life at 5 µM [3] [h] | further results
1 | C=CC(=O)N1C[C@H](C)N(c2nc(OCCN3CC(F)(F)C3)nc3c(F)c(-c4c(O)cccc4F)c(Cl)cc23)C[C@H]1C [Compound 38, 1-((2R,5S)-4-(6-chloro-2-(2-(3,3-difluoroazetidin-1-yl)ethoxy)-8-fluoro-7-(2-fluoro-6-hydroxyphenyl)quinazolin-4-yl)-2,5-dimethylpiperazin-1-yl)prop-2-en-1-one] | 3 | – | Binding % [1, 4]: +++ (+++ indicates binding activity greater than 90%); Whole Blood Stability (T1/2) [3]: 7.8 h
2 | C=CC(=O)N1CCN(c2nc(N3CC(N(C)C)C3)nc3c(F)c(-c4c(C)ccc5cn[nH]c45)c(Cl)cc23)C[C@H]1C (atropisomer, axis not shown) [Compound 70, 1-((R)-4-((R)-6-chloro-2-(3-(dimethylamino)azetidin-1-yl)-8-fluoro-7-(6-methyl-1H-indazol-7-yl)quinazolin-4-yl)-2-methylpiperazin-1-yl)prop-2-en-1-one] | 3 | 1.3 | –
3 | C=CC(=O)N1C[C@H](C)N(c2nc(N3CC(N(C)C)C3)nc3c(F)c(-c4c(C)ccc5cn[nH]c45)c(Cl)cc23)C[C@H]1C (atropisomer, axis not shown) [Compound 72, 1-((2R,5S)-4-((R)-6-chloro-2-(3-(dimethylamino)azetidin-1-yl)-8-fluoro-7-(6-methyl-1H-indazol-7-yl)quinazolin-4-yl)-2,5-dimethylpiperazin-1-yl)prop-2-en-1-one] | – | – | Binding % [1, 4]: +++ (+++ indicates binding activity greater than 90%); Whole Blood Stability (T1/2) [2]: 5.95 h; Whole Blood Stability (T1/2) [3]: 3.9 h
4 | C=CC(=O)N1CCN(c2nc(OCCN3CC(F)(F)C3)nc3c(F)c(-c4c(O)cccc4F)c(Cl)cc23)C[C@H]1C (atropisomer, axis not shown) [Compound 63, 1-((R)-4-((S)-6-chloro-2-(2-(3,3-difluoroazetidin-1-yl)ethoxy)-8-fluoro-7-(2-fluoro-6-hydroxyphenyl)quinazolin-4-yl)-2-methylpiperazin-1-yl)prop-2-en-1-one] | 1.3 | 1.2 | –
5 | C=CC(=O)N1CCN(c2nc(N3CC(N(C)C)C3)nc3c(F)c(-c4c(O)cccc4F)c(Cl)cc23)C[C@H]1C (atropisomer, axis not shown) [Compound 60, 1-((R)-4-((S)-6-chloro-2-(3-(dimethylamino)azetidin-1-yl)-8-fluoro-7-(2-fluoro-6-hydroxyphenyl)quinazolin-4-yl)-2-methylpiperazin-1-yl)prop-2-en-1-one] | 2.3 | 1.45 | –
6 | C=CC(=O)N1C[C@H](C)N(c2nc(N3CC(N(C)C)C3)nc3c(F)c(-c4c(O)cccc4F)c(Cl)cc23)C[C@H]1C (atropisomer, axis not shown) [Compound 52, 1-((2R,5S)-4-((S)-6-chloro-2-(3-(dimethylamino)azetidin-1-yl)-8-fluoro-7-(2-fluoro-6-hydroxyphenyl)quinazolin-4-yl)-2,5-dimethylpiperazin-1-yl)prop-2-en-1-one] | 5.1 | 6.8 | Binding % [1, 4]: +++ (+++ indicates binding activity greater than 90%)
7 | C=CC(=O)N1C[C@H](C)N(c2nc(OCCN(CC)CC)nc3c(F)c(-c4c(O)cccc4F)c(Cl)cc23)C[C@H]1C (atropisomer, axis not shown) [Compound 75, 1-((2R,5S)-4-((S)-6-chloro-2-(2-(diethylamino)ethoxy)-8-fluoro-7-(2-fluoro-6-hydroxyphenyl)quinazolin-4-yl)-2,5-dimethylpiperazin-1-yl)prop-2-en-1-one] | 4.8 | 3.9 | –
8 | C=CC(=O)N1CCN(c2nc(OCCN(CC)CC)nc3c(F)c(-c4c(O)cccc4F)c(Cl)cc23)CC1 [A, reference compound] | 0.6 | 0.1 | –
9 | C=CC(=O)N1CCN(c2nc(N3CC(N(C)C)C3)nc3c(F)c(-c4c(O)cccc4F)c(Cl)cc23)CC1 [B, reference compound] | 0.7 | 0.1 | –
10 | C=CC(=O)N1CCN(c2nc(OCCN3CC(F)(F)C3)nc3c(F)c(-c4c(O)cccc4F)c(Cl)cc23)CC1 [C, reference compound] | 0.6 | 0.2 | –
11 | C=CC(=O)N1[C@H](C)CN(c2nc(N3CC(N(C)C)C3)nc3c(F)c(-c4c(O)cccc4F)c(Cl)cc23)C[C@@H]1C [Compound 68, 1-((2R,6S)-4-((R)-6-chloro-2-(3-(dimethylamino)azetidin-1-yl)-8-fluoro-7-(2-fluoro-6-hydroxyphenyl)quinazolin-4-yl)-2,6-dimethylpiperazin-1-yl)prop-2-en-1-one] | 1.6 | 1 | –
12 | [2H]C([2H])([2H])N(C1CN(c2nc(N3C[C@@H](C)N(C(=O)C=C)C[C@@H]3C)c3cc(Cl)c(-c4c(O)cccc4F)c(F)c3n2)C1)C([2H])([2H])[2H] (atropisomer, axis not shown) [Compound 207, 1-((2R,5S)-4-(2-(3-(bis(tridueteromethyl)amino)azetidin-1-yl)-6-chloro-8-fluoro-7-((S)-2-fluoro-6-hydroxyphenyl)quinazolin-4-yl)-2,5-dimethylpiperazin-1-yl)prop-2-en-1-one] | – | – | Binding % [1, 5]: +++ (+++ indicates binding activity greater than 90%)
13 | C=CC(=O)N1C[C@H](C)N(c2nc(N3CC(N(C)C)C3)nc3c(F)c(-c4c(C)ccc5cn[nH]c45)c(Cl)cc23)C[C@H]1C [Compound 187, 1-((2R,5S)-4-(6-chloro-2-(3-(dimethylamino)azetidin-1-yl)-8-fluoro-7-(6-methyl-1H-indazol-7-yl)quinazolin-4-yl)-2,5-dimethylpiperazin-1-yl)prop-2-en-1-one] | – | – | Binding % [1, 5]: +++ (+++ indicates binding activity greater than 90%)
14 | C=CC(=O)N1C[C@H](C)N(c2nc(N3CC(N(C)C)C3)nc3c(F)c(-c4c(C)ccc5[nH]ncc45)c(Cl)cc23)C[C@H]1C [Compound 54, 1-((2R,5S)-4-(6-chloro-2-(3-(dimethylamino)azetidin-1-yl)-8-fluoro-7-(5-methyl-1H-indazol-4-yl)quinazolin-4-yl)-2,5-dimethylpiperazin-1-yl)prop-2-en-1-one] | – | – | Binding % [1, 4]: +++ (+++ indicates binding activity greater than 90%)
15 | C=CC(=O)N1C[C@H](C)N(c2nc(OCCc3nccn3C)nc3c(F)c(-c4c(C)ccc5[nH]ncc45)c(Cl)cc23)C[C@H]1C [Compound 293, 1-((2R,5S)-4-(6-chloro-8-fluoro-2-(2-(1-methyl-1H-imidazol-2-yl)ethoxy)-7-(5-methyl-1H-indazol-4-yl)quinazolin-4-yl)-2,5-dimethylpiperazin-1-yl)prop-2-en-1-one] | – | – | Binding % [1, 5]: ++ (++ indicates binding activity from 50 to 90%)
